Data from US12435087B2, “Modulators of DCN-1 and methods of use thereof” (Cellarity, Inc., priority 2023, dated 2025).
Read-outs that look alike come from different tables or passages of the source.

Target: DCN1 (DCUND1) protein PONY domain (Homo sapiens (Human), UniProt Q96GG9)
Experiment: TR-FRET assay (binding to DCN-1, displacement of FAM-labeled probe)
Summary of the method: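 Compounds read at 1, 5 and 24 h, 0.1% final DMSO, by TR-FRET between terbium-streptavidin on biotinylated DCN1 PONY domain (E. coli) and a FAM-tagged non-covalent inhibitor probe. Two setups used, 5 nM protein with 20 nM labelled probe, or 0.31 nM protein with 100 nM labelled plus 800 nM unlabelled probe; buffer had TritonX and 200 mM NaCl. % activity relative to high (with probe) and low (without probe) controls.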

[1] = 24 hr after treatment with compound, read-out: TR FRET IC50 24 hr
[2] = TR FRET IC50 1 hr (nM), 1 hr after treatment with compound
[3] = read-out: TR FRET IC50 1 hr, 1 hr after treatment with compound

Sequence of DCN1 (DCUND1) protein PONY domain (Q96GG9 60-248): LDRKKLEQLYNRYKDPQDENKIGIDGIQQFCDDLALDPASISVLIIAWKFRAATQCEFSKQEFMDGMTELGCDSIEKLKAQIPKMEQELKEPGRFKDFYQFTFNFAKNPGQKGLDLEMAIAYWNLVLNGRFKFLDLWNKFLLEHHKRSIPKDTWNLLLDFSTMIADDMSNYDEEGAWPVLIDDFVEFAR

SMILES | IC50 [1] | IC50 [2] | IC50 [3]
CCN1C(=O)[C@@H](NC(=O)c2nccc(C(F)(F)F)n2)[C@H](c2cccc(NC(=O)C3=CCN(C)C3)n2)c2cnn(-c3ccccc3)c21 (racemic) [Compound I-376, rac-N-((4R,5S)-7-ethyl-4-(6-(1-methyl-2,5-dihydro-1H-pyrrole-3-carboxamido)pyridin-2-yl)-6-oxo-1-phenyl-4,5,6,7-tetrahydro-1H-pyrazolo[3,4-b]pyridin-5-yl)-4-(trifluoromethyl)pyrimidine-2-carboxamide] | ≤ 200 nM | 200 to 1000 nM | 
CCN1C(=O)[C@@H](NC(=O)c2nccc(C(F)(F)F)n2)[C@H](c2cccc(NC(=O)/C=C/CN(C)C)n2)c2cnn(-c3ccccc3)c21 (racemic) [Compound I-265] | 200 to 1000 nM | 200 to 1000 nM | 
CCN1C(=O)[C@@H](NC(=O)c2cccc(C(F)(F)F)c2)[C@H](c2cccc(CN(C)C/C=C/C(=O)N(C)C)c2)c2cnn(-c3ccccc3)c21 [Compound I-339] | 1000 to 3000 nM | 1000 to 3000 nM | 
C=C(CN1CC2CCC(C1)O2)C(=O)NCc1cccc([C@@H]2c3cnn(-c4ccccc4)c3N(CC)C(=O)[C@H]2NC(=O)c2cccc(C(F)(F)F)c2)c1 [Compound I-136] | ≤ 200 nM |  | ≤ 200 nM
CCN1C(=O)[C@@H](NC(=O)c2cccc(C(F)(F)F)c2)[C@H](c2cccc(CNC(=O)C3=CCC3)c2)c2cnn(-c3ccccc3)c21 (racemic) [Compound I-126] | 1000 to 3000 nM | 1000 to 3000 nM | 
CCN1C(=O)[C@@H](NC(=O)c2ccn(C(F)(F)F)n2)[C@H](c2cccc(NC(=O)C3=CCN(C)C3)c2)c2c(C)nn(-c3ccccc3)c21 [Compound I-323] | ≤ 200 nM | 200 to 1000 nM | 
CCN1C(=O)[C@@H](NC(=O)c2nccc(C(F)(F)F)n2)[C@H](c2cccc(C(=O)N3CCC[C@@H]3C#N)c2)c2cnn(-c3ccccc3)c21 (mixture of isomers) [Compound I-250] | 1000 to 3000 nM | 1000 to 3000 nM | 
C=C(CN1CCOCC1)C(=O)NCc1cccc([C@@H]2c3cnn(-c4ccccc4)c3N(CC)C(=O)[C@H]2NC(=O)c2ccn(CC(F)(F)F)n2)c1 [Compound I-297] | ≤ 200 nM | 200 to 1000 nM | 
CCN1C(=O)[C@H](NC(=O)c2cccc(C(F)(F)F)c2)[C@@H](c2cccc(NC(=O)C3CCC3)c2)c2c(C)nn(-c3ccccc3)c21 (racemic) [Compound I-123] | 1000 to 3000 nM | 1000 to 3000 nM | 
CCN1C(=O)[C@H](NC(=O)c2cccc(C(F)(F)F)c2)[C@@H](c2cccc(N(C)C(=O)/C=C/CN(C)C)c2)c2cnn(-c3ccccc3)c21 (racemic) [Compound I-39] | 1000 to 3000 nM | 1000 to 3000 nM | 
C=C(F)C(=O)Nc1cccc([C@H]2c3c(C)nn(-c4ccccc4)c3N(CC)C(=O)[C@@H]2NC(=O)c2cccc(C(F)(F)F)c2)c1 (racemic) [Compound I-140, N-((4S,5R)-7-ethyl-4-(3-(2-fluoroacrylamido)phenyl)-3-methyl-6-oxo-1-phenyl-4,5,6,7-tetrahydro-1H-pyrazolo[3,4-b]pyridin-5-yl)-3(trifluoromethyl) benzamide] | > 3000 nM | > 3000 nM | 
CCN1C(=O)[C@@H](NC(=O)c2nccc(C(F)(F)F)n2)[C@H](c2cccc(NC(=O)C3=CCC3)n2)c2cnn(-c3ccccc3)c21 (racemic) [Compound I-279] | 1000 to 3000 nM | 1000 to 3000 nM | 
C=C(CN1CCC(C)(O)C1)C(=O)NCc1cccc([C@@H]2c3cnn(-c4ccccc4)c3N(CC)C(=O)[C@H]2NC(=O)c2cccc(C(F)(F)F)c2)c1 (stereo partly drawn) [Compound I-10, N-((4R,5S)-7-ethyl-4-(3-((2-((3-hydroxy-3-methylpyrrolidin-1-yl)methyl)acrylamido)methyl)phenyl)-6-oxo-1-phenyl-4,5,6,7-tetrahydro-1H-pyrazolo[3,4-b]pyridin-5-yl)-3-(trifluoromethyl)benzamide] | ≤ 200 nM |  | ≤ 200 nM
C/C=C(\CN1CCC1)C(=O)NCc1cccc([C@@H]2c3cnn(-c4ccccc4)c3N(CC)C(=O)[C@H]2NC(=O)c2nccc(C(F)(F)F)n2)c1 [Compound I-314] | ≤ 200 nM | 200 to 1000 nM | 
CCN1C(=O)[C@H](NC(=O)c2cccc(C(F)(F)F)c2)[C@@H](c2cccc(CNC(=O)C3=C(C(=O)OC)CCC3)c2)c2cnn(-c3ccccc3)c21 [Compound I-119] | 1000 to 3000 nM | 1000 to 3000 nM | 
C=C(CO)C(=O)NCc1cccc([C@@H]2c3cnn(-c4ccccc4)c3N(CC)C(=O)[C@H]2NC(=O)c2cccc(C(F)(F)F)c2)c1 [Compound I-76] | 1000 to 3000 nM | 1000 to 3000 nM | 
CCN1C(=O)[C@H](NC(=O)c2cccc(C(F)(F)F)c2)[C@@H](c2cccc(CNC(=O)C3=C(C(=O)OC)CC3)c2)c2cnn(-c3ccccc3)c21 [Compound I-118] | 1000 to 3000 nM | 1000 to 3000 nM | 
C=C(CN1C[C@@H]2C[C@H]1CO2)C(=O)NCc1cccc([C@@H]2c3cnn(-c4ccccc4)c3N(CC)C(=O)[C@@H]2NC(=O)c2cccc(C(F)(F)F)c2)c1 [Compound I-144] | 200 to 1000 nM | 1000 to 3000 nM | 

SMILES | IC50 [1] | IC50 [2] | IC50 [3]
CCN1C(=O)[C@@H](NC(=O)c2cccc(C(F)(F)F)c2)[C@H](c2cccc3c2CN(C#N)C3)c2cnn(-c3ccccc3)c21 (racemic) [Compound I-282, rac-N-((4R,5S)-4-(2-cyanoisoindolin-4-yl)-7-ethyl-6-oxo-1-phenyl-4,5,6,7-tetrahydro-1H-pyrazolo[3,4-b]pyridin-5-yl)-3-(trifluoromethyl)benzamide] | 1000 to 3000 nM | 1000 to 3000 nM | 
C/C=C(\CN1CC2(COC2)C1)C(=O)NCc1cccc([C@@H]2c3cnn(-c4ccccc4)c3N(CC)C(=O)[C@H]2NC(=O)c2nccc(C(F)(F)F)n2)c1 [Compound I-243] | ≤ 200 nM | 200 to 1000 nM | 
CCN1C(=O)[C@@H](NC(=O)c2nccc(C(F)(F)F)n2)[C@H](c2cccc(C(=O)N3CCC[C@H]3C#N)c2)c2cnn(-c3ccccc3)c21 [Compound I-249] | 1000 to 3000 nM | 1000 to 3000 nM | 
CCN1C(=O)[C@@H](NC(=O)c2cccc(C(F)(F)F)c2)[C@H](c2ccc(F)c(NC(=O)/C=C/CN(C)C)c2)c2cnn(-c3ccccc3)c21 [Compound I-32] | ≤ 200 nM | 1000 to 3000 nM | 
C/C=C(\CN1CCN(C2COC2)CC1)C(=O)NCc1cccc([C@@H]2c3cnn(-c4ccccc4)c3N(CC)C(=O)[C@H]2NC(=O)c2ccn(C3CC3)n2)c1 [Compound I-288] | ≤ 200 nM | 200 to 1000 nM | 
CCN1C(=O)[C@@H](NC(=O)c2cccc(C(F)(F)F)c2)[C@@H](c2cc(NC(=O)/C=C/CN(C)C)ccc2F)c2cnn(-c3ccccc3)c21 (racemic) [Compound I-107] | 1000 to 3000 nM | 1000 to 3000 nM | 
C=CC(=O)N(C)c1ccccc1[C@H]1c2cnn(-c3ccccc3)c2N(CC)C(=O)[C@@H]1NC(=O)c1cccc(C(F)(F)F)c1 (racemic) [Compound I-97, ˜{N}—[˜{rac}-(4˜{S},5˜{R})-7-ethyl-4-[2-[methyl(prop-2-enoyl)amino]phenyl]-6-oxo-1-phenyl-4,5-dihydropyrazolo[3,4-b]pyridin-5-yl]-3-(trifluoromethyl)benzamide] | 1000 to 3000 nM | 1000 to 3000 nM | 
C=C(CN1CC2(COC2)C1)C(=O)NCc1cccc([C@H]2c3c(C)nn(-c4ccccc4)c3N(CC)C(=O)[C@H]2NC(=O)c2cccc(C(F)(F)F)c2)c1 [Compound I-304] | 200 to 1000 nM | 1000 to 3000 nM | 
C/C=C(\CN1CCOCC1)C(=O)NCc1cccc([C@@H]2c3cnn(-c4ccccc4)c3N(CC)C(=O)[C@H]2NC(=O)c2cccc(C(F)(F)F)c2)c1 [Compound I-152] | ≤ 200 nM | 1000 to 3000 nM | 
C=C(C(=O)NCc1cccc([C@@H]2c3cnn(-c4ccccc4)c3N(CC)C(=O)[C@H]2NC(=O)c2csc(C(F)(F)F)n2)c1)C(C(C)C)N(C)C1COC1 (stereo partly drawn) [Compound I-352] | ≤ 200 nM |  | ≤ 200 nM
CCN1C(=O)[C@@H](NC(=O)c2cccc(C(F)(F)F)c2)[C@H](c2cccc(CNC(=O)C(F)Cl)c2)c2cnn(-c3ccccc3)c21 (mixture of isomers) [Compound I-100] | 1000 to 3000 nM | 1000 to 3000 nM | 
C=C(COC)C(=O)Nc1cccc([C@H]2c3c(C)nn(-c4ccccc4)c3N(CC)C(=O)[C@@H]2NC(=O)c2cccc(C(F)(F)F)c2)c1 [Compound I-158] | ≤ 200 nM | 1000 to 3000 nM | 
C=CC(=O)NCc1ccccc1[C@@H]1c2cnn(-c3ccccc3)c2N(CC)C(=O)[C@H]1NC(=O)c1cccc(C(F)(F)F)c1 (racemic) [Compound I-113] | 1000 to 3000 nM | 1000 to 3000 nM | 
CCN1C(=O)[C@H](NC(=O)c2cccc(C(F)(F)F)c2)[C@@H](c2ccccc2NC(=O)CCl)c2c(C)nn(-c3ccccc3)c21 [Compound I-110, N-((4S,5R)-4-(2-(2-chloroacetamido)phenyl)-7-ethyl-3-methyl-6-oxo-1-phenyl-4,5,6,7-tetrahydro-1H-pyrazolo[3,4-b]pyridin-5-yl)-3-(trifluoromethyl)benzamide] | 1000 to 3000 nM | 1000 to 3000 nM | 
C=C(C(=O)NCc1cccc([C@@H]2c3cnn(-c4ccccc4)c3N(CC)C(=O)[C@H]2NC(=O)c2csc(C)n2)c1)C(C)N(C)C1COC1 (stereo partly drawn) [Compound I-278] | ≤ 200 nM |  | ≤ 200 nM
CCN1C(=O)[C@@H](NC(=O)c2cccc(C(F)(F)F)c2)[C@H](c2cc(NC(=O)/C=C/CN(C)C)ccc2F)c2cnn(-c3ccccc3)c21 (racemic) [Compound I-79] | 200 to 1000 nM | 1000 to 3000 nM | 
C=C(C(=O)N(C)Cc1cccc([C@@H]2c3cnn(-c4ccccc4)c3N(CC)C(=O)[C@H]2NC(=O)c2ccn(C3CC3)n2)c1)C(C)N1CCC12COC2 (stereo partly drawn) [Compound I-343] | 200 to 1000 nM | 1000 to 3000 nM | 
CCN1C(=O)[C@@H](NC(=O)c2cccc(C(F)(F)F)c2)[C@H](c2cccc(CN(C)C#N)c2)c2c(C)nn(-c3ccccc3)c21 (racemic) [Compound I-40] | 1000 to 3000 nM | 1000 to 3000 nM | 
